23 molecules from patent publication US12221444B2, “5,6,7,7a-tetrahydrocyclopenta[f]pyrido[1,2-h][1,7]naphthyridin-11(4bH)-one compounds and methods of use” (GLAXOSMITHKLINE INTELLECTUAL, priority 2017, dated 2025) can be followed below.

One data set has as its system HBs antigens (HBsAg). Kind of data set: HepAD38 cells HBsAg ELISA. The format is cell-based, Hepatitis B virus. The settings on record: read-out: HepAD38, HBsAg (EC50), 7 days total treatment, HBsAg ELISA of cell media. How it is done: (§1) Example 36 HepAD38 Cells—HBsAg ELISA and Cytotoxicity Assays
(§2) HepAD38 cells are maintained in collagen-coated flasks in cell culture medium (DMEM/F12 containing 10% fetal bovine serum (FBS), GlutaMax-1, penicillin/streptomycin, non-essential amino acids, Na pyruvate, 250 μg/mL geneticin, and 1 μg/mL doxycycline). Compound solutions are prepared in DMSO and compound are serially diluted for final concentrations of 4000, 1000, 250, 62.5, 15.6, 3.91, 0.977, 0.244, 0.061, and 0.015 ηM. The cells are then trypsinized and the cells are plate at 10,000 cells per well. Incubate plates are incubated at 37° C., 5% CO2 for 4 days. Media is replaced with new media with compound treatment. The plates are then incubated at 37° C., 5% CO2 for an additional 3 days for a total treatment time of 7 days. For antiviral response, HBsAg was measured using the HBsAg ELISA kit (International Immuno-diagnostics) with instructions provided. 100 uL of cell media samples was used for ELISA. The absorbance was read on the Spectramax® 384 plate reader (Molecular Devices) at 450 nm. For cell toxicity, the cells were used for CellTiter-Glo® Luminescent Cell Viability Assay reagent (Promega). The luminescence was read on Envision Multilabel Reader (Perkin Elmer). The data was analyzed compared to the DMSO control. % inhibition=(1−(unknown/high control))*100
(§3) The average % inhibition values from duplicate assay plates are then plotted in GraphPad Prism to determine one IC value: Four-parameter logistic curve with equation Y=Bottom+(Top-Bottom)/(1+10^((Log IC50−X)*HillSlope)) pIC50=[…]

Data set [1] in a line: HepAD38 cells cytotoxicity assay (CellTiter-Glo Luminescent Cell Viability Assay). The settings on record: human, 7 days total treatment, read-out: Cell tox (EC50, ηM). The format is cell-based. The procedure: as §1, §2, §3
In general terms: Cellular ATP, detected with luciferase, serves as a proxy for viable cell number.

With `COCCCOc1cc2c(nc1C1CC1)-c1cc(=O)c(C(=O)O)cn1C1C2CCC1(C)C` (racemic) [Example 4, 2-Cyclopropyl-3-(3-methoxypropoxy)-7,7-dimethyl-11-oxo-4b,5,6,7,7a,11-hexahydrocyclopenta[f]pyrido[1,2-h][1,7]naphthyridine-10-carboxylic acid (racemic cis)], the concentration for a half-maximal effect (EC50) (in general, the concentration that produces a half-maximal response) with HBs antigens (HBsAg) is < 1 nM. In data set [1], the half-maximal effective concentration (EC50) at 7 days was > 4 µM.

Consider `CC(C)(C)C1Cc2cc(OCC3CC3)c(Cl)nc2-c2cc(=O)c(C(=O)O)cn21` (racemic) [Example 30, 6-(tert-Butyl)-2-chloro-3-(cyclopropylmethoxy)-10-oxo-6,10-dihydro-5H-pyrido[1,2-h][1,7]naphthyridine-9-carboxylic acid], for which the half-maximal effective concentration (EC50) in the data set with HBs antigens (HBsAg) lay within 1 to 10 nM. For the same molecule, the EC50 at 7 days in data set [1] is > 4 µM.

Regarding `COCCCOc1cc2c(nc1Cl)-c1cc(=O)c(C(=O)O)cn1C1C2CCC1(C)C` (racemic) [Example 34, 2-Chloro-3-(3-methoxypropoxy)-7,7-dimethyl-11-oxo-4b,5,6,7,7a,11-hexahydrocyclopenta[f]pyrido[1,2-h][1,7]naphthyridine-10-carboxylic acid], in the data set on HBs antigens (HBsAg), the EC50 is < 1 nM. For the same molecule, in data set [1], the half-maximal effective concentration (EC50) at 7 days was > 4 µM.

In the case of `COCCCOc1cc2c(nc1Cl)-c1cc(=O)c(C(=O)O)cn1[C@H]1[C@@H]2CCC1(C)C` (single isomer, unassigned) [Example 1], in the data set with HBs antigens (HBsAg), the EC50 is < 1 nM. Besides, the half-maximal effective concentration (EC50) at 7 days in data set [1] was > 4 µM.

For `COCCCOc1cc2c(nc1Cl)-c1cc(=O)c(C(=O)O)cn1[C@@H]1[C@H]2CCC1(C)C` (single isomer, unassigned) [Example 2], the EC50 in the data set on HBs antigens (HBsAg) is 10 to 100 nM. Moreover, the EC50 at 7 days in data set [1] is > 4 µM.

As to `COCCCOc1cc2c(nc1C1CC1)-c1cc(=O)c(C(=O)O)cn1[C@@H]1C(C)(C)CCC21O` (single isomer, unassigned) [Example 5], the EC50 in the data set with HBs antigens (HBsAg) is 1 to 10 nM. The EC50 at 7 days in data set [1] was > 4 µM.

On to `CC(C)(C)C1Cc2cc(OCC3CC3)c(Cl)nc2-c2cc(=O)c(C(=O)O)cn21` (single isomer, unassigned; isomer 2) [Example 30-B, 6-(tert-Butyl)-2-chloro-3-(cyclopropylmethoxy)-10-oxo-6,10-dihydro-5H-pyrido[1,2-h][1,7]naphthyridine-9-carboxylic acid (isomer 2)], for which the EC50 in the data set on HBs antigens (HBsAg) was > 100 nM. The EC50 at 7 days in data set [1] is > 4 µM.

Regarding `CC(C)C1(C)Cc2cc(OCC3CC3)c(Cl)nc2-c2cc(=O)c(C(=O)O)cn21` (single isomer, unassigned; isomer-1) [Example 26, (2-Chloro-3-(cyclopropylmethoxy)-6-isopropyl-6-methyl-10-oxo-5,10-dihydro-6H-pyrido[1,2-h][1,7]naphthyridine-9-carboxylic acid-Isomer-1], the concentration giving a half-maximal response (EC50) in the data set on HBs antigens (HBsAg) was 1 to 10 nM. The concentration for a half-maximal effect (EC50) at 7 days in data set [1] is > 4 µM.

Take `COCCCOc1cc2c(nc1C1CC1)-c1cc(=O)c(C(=O)O)cn1C(C)(C(C)C)C2` (single isomer, unassigned; isomer-1) [Example 28, 2-Cyclopropyl-6-isopropyl-3-(3-methoxypropoxy)-6-methyl-10-oxo-5,10-dihydro-6H-pyrido[1,2-h][1,7]naphthyridine-9-carboxylic acid-Isomer-1]: the concentration for a half-maximal effect (EC50) with HBs antigens (HBsAg) is < 1 nM. Also, the EC50 at 7 days in data set [1] is > 4 µM.

With `COCCCOc1cc2c(nc1C1CC1)-c1cc(=O)c(C(=O)O)cn1[C@H]1[C@@H]2CCC1(C)C` [Example 3, (4bR,7aS)-2-Cyclopropyl-3-(3-methoxypropoxy)-7,7-dimethyl-11-oxo-4b,5,6,7,7a,11-hexahydrocyclopenta[f]pyrido[1,2-h][1,7]naphthyridine-10-carboxylic acid], in the data set with HBs antigens (HBsAg), the EC50 was < 1 nM. In addition, the EC50 at 7 days in data set [1] is > 4 µM.

As for `COCCCOc1cc2c(nc1Cl)-c1cc(=O)c(C(=O)O)cn1[C@@H]1C(C)(C)CCC21O` (stereo partly drawn) [Example 6, (7aR)-2-Chloro-4b-hydroxy-3-(3-methoxypropoxy)-7,7-dimethyl-11-oxo-4b,5,6,7,7a,11-hexahydrocyclopenta[f]pyrido[1,2-h][1,7]naphthyridine-10-carboxylic acid], in the data set with HBs antigens (HBsAg), the EC50 was 10 to 100 nM. Moreover, in data set [1], the EC50 at 7 days was > 4 µM.

Take `COCCCOc1cc2c(nc1Cl)-c1cc(=O)c(C(=O)O)cn1[C@@H]1C(C)(C)CCC21OC` (stereo partly drawn) [Example 7, (7aR)-2-Chloro-4b-methoxy-3-(3-methoxypropoxy)-7,7-dimethyl-11-oxo-4b,5,6,7,7a,11-hexahydrocyclopenta[f]pyrido[1,2-h][1,7]naphthyridine-10-carboxylic acid]: the concentration giving a half-maximal response (EC50) in the data set with HBs antigens (HBsAg) fell in the range of 10 to 100 nM. Moreover, in data set [1], the EC50 at 7 days was > 4 µM.

As for `COCCCOc1cc2c(nc1O)-c1cc(=O)c(C(=O)O)cn1[C@H]1[C@@H]2CCC1(C)C` [Example 8, (4bR,7aS)-2-Hydroxy-3-(3-methoxypropoxy)-7,7-dimethyl-11-oxo-4b,5,6,7,7a,11-hexahydrocyclopenta[f]pyrido[1,2-h][1,7]naphthyridine-10-carboxylic acid], the 50% effective concentration (EC50) in the data set with HBs antigens (HBsAg) was > 100 nM. In data set [1], the concentration giving a half-maximal response (EC50) at 7 days is > 4 µM.

With `CC1(C)CC[C@@H]2c3cc(O)c(Cl)nc3-c3cc(=O)c(C(=O)O)cn3[C@@H]21` [Example 9, (4bR,7aS)-2-Chloro-3-hydroxy-7,7-dimethyl-11-oxo-4b,5,6,7,7a,11-hexahydrocyclopenta[f]pyrido[1,2-h][1,7]naphthyridine-10-carboxylic acid], the EC50 in the data set on HBs antigens (HBsAg) was > 100 nM. For the same molecule, in data set [1], the concentration for a half-maximal effect (EC50) at 7 days is > 4 µM.

Consider `COCCCOc1cc2c(nc1Cl)-c1cc(=O)c(C(=O)O)cn1C(C(C)(C)CO)C2` (stereo not shown) [Example 10, 2-Chloro-6-(1-hydroxy-2-methylpropan-2-yl)-3-(3-methoxypropoxy)-10-oxo-6,10-dihydro-5H-pyrido[1,2-h][1,7]naphthyridine-9-carboxylic acid], for which, in the data set on HBs antigens (HBsAg), the EC50 fell in the range of 1 to 10 nM. The EC50 at 7 days in data set [1] is > 4 µM.

On to `COCCCOc1cc2c(nc1Cl)-c1cc(=O)c(C(=O)O)cn1[C@H](C(C)(C)C)C2` [Example 11, (S)-6-(tert-Butyl)-2-chloro-3-(3-methoxypropoxy)-10-oxo-6,10-dihydro-5H-pyrido[1,2-h][1,7]naphthyridine-9-carboxylic acid], for which, in the data set with HBs antigens (HBsAg), the EC50 is < 1 nM. Also, the EC50 at 7 days in data set [1] was > 4 µM.

On to `Cc1nc2c(cc1OCC1CC1)C[C@@H](C(C)(C)C)n1cc(C(=O)O)c(=O)cc1-2` [Example 12, (S)-6-(tert-Butyl)-3-(cyclopropylmethoxy)-2-methyl-10-oxo-6,10-dihydro-5H-pyrido[1,2-h][1,7]naphthyridine-9-carboxylic acid], for which, in the data set on HBs antigens (HBsAg), the EC50 is < 1 nM. Also, the EC50 at 7 days in data set [1] was > 4 µM.

For the molecule `COCCCOc1cc2c(nc1C)-c1cc(=O)c(C(=O)O)cn1[C@H](C(C)(C)C)C2` [Example 13, (S)-6-(tert-Butyl)-3-(3-methoxypropoxy)-2-methyl-10-oxo-6,10-dihydro-5H-pyrido[1,2-h][1,7]naphthyridine-9-carboxylic acid], the concentration for a half-maximal effect (EC50) with HBs antigens (HBsAg) is < 1 nM. In addition, the concentration giving a half-maximal response (EC50) at 7 days in data set [1] is > 4 µM.

For the molecule `CC(C)(C)[C@@H]1Cc2cc(OCC3CC3)c(C3CC3)nc2-c2cc(=O)c(C(=O)O)cn21` [Example 14, (S)-6-(tert-Butyl)-2-cyclopropyl-3-(cyclopropylmethoxy)-10-oxo-6,10-dihydro-5H-pyrido[1,2-h][1,7]naphthyridine-9-carboxylic acid], the concentration giving a half-maximal response (EC50) with HBs antigens (HBsAg) was < 1 nM. Also, the half-maximal effective concentration (EC50) at 7 days in data set [1] is > 4 µM.

For `COCCCOc1cc2c(nc1C1CC1)-c1cc(=O)c(C(=O)O)cn1[C@H](C(C)(C)C)C2` [Example 15, (S)-6-(tert-Butyl)-2-cyclopropyl-3-(3-methoxypropoxy)-10-oxo-6,10-dihydro-5H-pyrido[1,2-h][1,7]naphthyridine-9-carboxylic acid], the EC50 in the data set with HBs antigens (HBsAg) was < 1 nM. Moreover, in data set [1], the 50% effective concentration (EC50) at 7 days is > 4 µM.

Regarding `COc1nc2c(cc1OCC1CC1)C[C@H](C(C)(C)C)n1cc(C(=O)O)c(=O)cc1-2` [Example 16, (R)-6-(tert-Butyl)-3-(cyclopropylmethoxy)-2-methoxy-10-oxo-6,10-dihydro-5H-pyrido[1,2-h][1,7]naphthyridine-9-carboxylic acid], in the data set on HBs antigens (HBsAg), the EC50 was > 100 nM. In addition, the 50% effective concentration (EC50) at 7 days in data set [1] is > 4 µM.

As to `COc1nc2c(cc1OCC1CC1)C[C@@H](C(C)(C)C)n1cc(C(=O)O)c(=O)cc1-2` [Example 17, (S)-6-(tert-Butyl)-3-(cyclopropylmethoxy)-2-methoxy-10-oxo-6,10-dihydro-5H-pyrido[1,2-h][1,7]naphthyridine-9-carboxylic acid], the concentration for a half-maximal effect (EC50) in the data set on HBs antigens (HBsAg) was < 1 nM. Further, in data set [1], the EC50 at 7 days is > 4 µM.

Turning to `CC(C)(C)[C@@H]1Cc2cc(OCC3CC3)c(O)nc2-c2cc(=O)c(C(=O)O)cn21` [Example 18, (S)-6-(tert-Butyl)-3-(cyclopropylmethoxy)-2-hydroxy-10-oxo-6,10-dihydro-5H-pyrido[1,2-h][1,7]naphthyridine-9-carboxylic acid], the EC50 in the data set on HBs antigens (HBsAg) was > 100 nM. Also, in data set [1], the EC50 at 7 days is > 4 µM.
